Reference: patent publication US12398153B2, “Spiro compound serving as ERK inhibitor, and application thereof” (D3 BIO (WUXI) CO., LTD., priority 2019, dated 2025)
pIC50: −log10 of the molar value. Read-outs that look alike come from different tables or passages of the source.

Legend:
ERK2 kinase = ERK2 kinase (Homo sapiens (Human), UniProt P28482); test: Assay of in vitro kinase activity (33P-ATP filter-binding, MBP substrate); assay type: biochemical
Method: Assay Example 1. Assay of In Vitro Kinase Activity
The ability of compounds to inhibit ERK2 kinase activity was measured.
20 mM Hepes (pH 7.5), 10 mM MgCl2, 1 mM ethylenebis(oxyethylenenitrilo)tetraacetic acid (EGTA), 0.02% Brij35, 0.02 mg/mL bovine serum albumin (BSA), 0.1 mM Na3VO4, 2 mM dithiothreitol (DTT), 1% DMSO.
The assay compound was dissolved in 100% DMSO to prepare a stock solution of specific concentration. The compound was serially diluted in DMSO solution using Integra Viaflo Assist smart pipette.
• 1) The substrate MBP was prepared in freshly prepared reaction buffer; • 2) ERK2 kinase was added to the above-mentioned MBP solution and mixed gently; • 3) The compound dissolved in 100% DMSO was added to the kinase reaction system using ultrasound technology (Echo550; nanoliter range), and the mixture was incubated at room temperature for 20 minutes; • 4) ^33P-ATP (specific concentration of […]) was added to the reaction system, and the reaction was started at this time; • 5) The mixture was incubated at room temperature for 2 hours; • 6) The amount of radioactivity was detected by filter-binding method; • 7) ERK2 kinase activity was calculated as the ratio of the remaining kinase activity in the assay sample to the kinase activity of the control group (treated by DMSO). Curve was fitted using Prism (GraphPad software) and IC50 values were calculated. 5.

HT29 tumor cells = test: In vitro cell proliferation inhibition assay (CellTiterGlo); assay type: cell-based
Method: Assay Example 2. In Vitro Cell Proliferation Inhibition Assay
The ability of compounds to inhibit the proliferation of HT29 tumor cells was measured.
The assay compound was dissolved in 100% DMSO to prepare 10 mM stock solution.
• 1) UV light of a biological safety cabin was turned on, and 30 minutes were counted down; • 2) In a 37° C. water bath, RPMI1640 medium and trypsin were preheated; • 3) After completion of the UV irradiation, the biological safety cabin was opened. The preheated medium, trypsin and phosphate buffered saline (PBS), etc. were wiped with alcohol and placed in the biological safety cabin; • 4) HT29 cells were removed from the incubator, and the old medium was removed in biological safety cabin. 10 ml of PBS was added. The mixture was shaken gently, and then PBS was removed; • 5) 1.5 ml of preheated 0.25% trypsin was added. The culture vessel was shaken horizontally so that the trypsin evenly covered the cells at the bottom, and placed in an incubator for 2 minutes; • 6) Cell digestion was stopped with complete medium, and the cell suspension was pipetted to homogeneity and counted; • 7) According to the result of cell counting, the density of cell suspension was adjusted to 1500 cells per well, and the cell suspension was seeded at 50 μl per well; • 8) The stock solution of compounds was serially diluted in DMSO solution, and compounds were added to cell plate using Tecan;
9) The compound-added cell plate and CellTiterGlo were equilibrated at room temperature, and 25 microliters of CellTiterGlo was then added to each well. The cell plate was shaken for 1-2 minutes and then allowed to stand for 10 minutes. The signal value was then detected. The data were analyzed using XL-Fit, and the IC50 of each compound was calculated.

[1] = In vivo DMPK assay in mouse; details: female BALB/c mice; for Oral DNAUC (AUCPO/Dose) / Cmax: 3 mg/kg orally; for clearance / Vd / bioavailability / half-life / Cmax: mouse, plasma; for clearance / Vd: iv, 1 mg/kg intravenously; for clearance: read-out: Cl (clearance rate); for Vd: read-out: Vdss (distribution volume); for bioavailability / Cmax: po; for bioavailability: 1 mg/kg intravenously and 3 mg/kg orally, read-out: F % (oral bioavailability); for half-life: single administration, read-out: T1/2 (half-life) (converted); for Cmax: read-out: Cmax (maximum concentration)
Source text: Assay Example 3. Assay of In Vivo DMPK
In vivo DMPK assay in mouse
Female BALB/c mice were used as assay animals to determine the blood concentration of compounds and evaluate the pharmacokinetic behavior after a single administration.
Eight healthy adult female BALB/c mice were selected, wherein 4 mice were in the intravenous injection group and 4 mice were in the oral group. The vehicle in the intravenous injection group was 5% DMSO+95% (20% HP-β-CD). The compound to be assayed was mixed with an appropriate amount of vehicle for intravenous injection, vortexed and sonicated to prepare a clear solution of 0.5 mg/mL. The clear solution was filtered by a microporous membrane, and then ready for use. The vehicle in the oral group was 5% DMSO+95% (20% HP-β-CD). The compound to be assayed was mixed with the vehicle, vortexed and sonicated to prepare a solution of 0.3 mg/mL. Mice were administered 1 mg/kg intravenously or 3 mg/kg orally, and then whole blood was collected for a certain period. Plasma was prepared. The drug concentration was analyzed by LC-MS/MS method, and the pharmacokinetic parameters were calculated by Phoenix WinNonlin software (Pharsight, USA).
Note: DMSO: dimethyl sulfoxide; HP-β-CD: hydroxypropyl-β-cyclodextrin.

[2] = system: human colon cancer HCT-116 cells; test: In vivo efficacy, subcutaneous xenograft tumor of human colon cancer HCT-116 cells in BALB/c nude mouse; details: 15 mg/kg, PO, QD
Method: Assay Example 4. Assay of In Vivo Efficacy of Subcutaneous Xenograft Tumor of Human Colon Cancer HCT-116 Cells in BALB/c Nude Mouse Model
The anti-tumor effect of WX007 was evaluated using a subcutaneous xenograft tumor model of human colon cancer HCT-116 cells in nude mouse.
• Species: mouse • Strain: BALB/c nude mouse • Age: 6-8 weeks old • Gender: female • Weight: 17-23 grams • Vendor: Laboratory Animal Management Department, Shanghai Institute for Biomedical and Pharmaceutical Technologies • Animal certificate number: 20180006020214 3. Assay Procedure: • 1) Assay cells and culture: Human colon cancer HCT-116 cells were cultured in monolayer in vitro. […] When the cell saturation was 80%-90% and the amount reached the requirement, the cells were harvested, counted, and inoculated; • 2) Tumor tissue inoculation and grouping: 0.2 mL (5×10^6) of HCT-116 cells were subcutaneously inoculated into the right armpit of each mouse. […]
• 3) Daily observation of assay animals: The development of this assay protocol and any modifications were evaluated and approved by the Institutional Animal Care and Use Committee (IACUC). […] Animals were monitored daily for health and death. […] The compound was formulated once a week. • 5) Tumor measurement and assay indicator: • a) Tumor diameter was measured twice a week with a vernier caliper. […]

Sequence of ERK2 kinase (P28482 whole entry): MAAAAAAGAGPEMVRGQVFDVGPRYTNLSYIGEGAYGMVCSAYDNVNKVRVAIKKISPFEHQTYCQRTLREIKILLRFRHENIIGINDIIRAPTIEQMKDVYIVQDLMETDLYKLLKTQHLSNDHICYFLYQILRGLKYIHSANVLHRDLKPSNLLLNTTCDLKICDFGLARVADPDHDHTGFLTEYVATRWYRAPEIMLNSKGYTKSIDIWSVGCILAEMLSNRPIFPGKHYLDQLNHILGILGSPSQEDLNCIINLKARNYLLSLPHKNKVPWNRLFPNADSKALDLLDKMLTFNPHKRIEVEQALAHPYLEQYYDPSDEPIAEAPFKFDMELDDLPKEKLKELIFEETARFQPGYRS

Row | SMILES | pIC50 (ERK2 kinase) | pIC50 (HT29 tumor cells; Homo sapiens, HT-29) | Oral DNAUC (AUCPO/Dose) [1] [nM · h/mpk] | clearance [1] [mL/min/kg] | Vd [1] [L/kg] | bioavailability [1] [%] | half-life [1] [h] | Cmax [1] [nM] | pIC50 (HT29 tumor cells) | TGI (inhibition rate of tumor growth) ([2]; 18th day, HCT-116 xenograft in nude mouse) [%] | Body weight of assay animals ([2]; to the 18th day)
1 | Cn1nccc1Nc1nccc(-c2nc3c(s2)[C@@]2(CCOC2)N(Cc2cccc(Cl)c2)C3=O)n1 [WX001A] | 9.51 |  |  |  |  |  |  |  | 7.68 |  | 
2 | Cn1nccc1Nc1nccc(-c2nc3c(s2)C2(COC2)N(Cc2cccc(F)c2)C3=O)n1 [WX004] | 8.96 | 6.90 |  |  |  |  |  |  |  |  | 
3 | Cc1cnc(Nc2ccnn2C)nc1-c1nc2c(s1)C1(COC1)N(Cc1cccc(F)c1)C2=O [WX006] | 9.03 | 7.85 | 1356 | 17.2 | 1.7 | 70 | 1.4 | 1400 |  |  | 
4 | Cc1cnc(Nc2ccnn2C)nc1-c1nc2c(s1)C1(COC1)N(Cc1cccc(Cl)c1)C2=O [WX007] | 9.32 | 7.96 | 1086 | 14.4 | 1.7 | 46 | 1.3 | 595 |  | 62 | did not decrease significantly

Now from value to compound, other results behind:

Row | pIC50 (ERK2 kinase) | pIC50 (HT29 tumor cells; Homo sapiens, HT-29) | Oral DNAUC (AUCPO/Dose) [1] [nM · h/mpk] | clearance [1] [mL/min/kg] | Vd [1] [L/kg] | bioavailability [1] [%] | half-life [1] [h] | Cmax [1] [nM] | SMILES | pIC50 (HT29 tumor cells) | TGI (inhibition rate of tumor growth) ([2]; 18th day, HCT-116 xenograft in nude mouse) [%] | Body weight of assay animals ([2]; to the 18th day)
5 | 9.54 | 7.16 |  |  |  |  |  |  | O=C1c2nc(-c3ccnc(NC4CCOCC4)n3)sc2C2(CCOCC2)N1Cc1cccc(Cl)c1 [WX003] |  |  | 
6 | 9.44 | 7.31 |  |  |  |  |  |  | Cn1nccc1Nc1nccc(-c2nc3c(s2)C2(COC2)N(Cc2cccc(Cl)c2)C3=O)n1 [WX005] |  |  | 
7 | 9.40 | 7.14 |  |  |  |  |  |  | Cn1nccc1Nc1nccc(-c2nc3c(s2)C2(CCOCC2)N(Cc2cccc(Cl)c2)C3=O)n1 [WX002] |  |  | 
